In patent US20180344702A1, “METHODS FOR TREATING PATIENTS WITH HEMATOLOGIC MALIGNANCIES” (Aptose Biosciences, Inc., priority 2017, published 2018):

What was measured:
[1] = test system: BTK and Aurora kinase in Ramos cells; test: Cell signaling in Ramos cells (Western blot); format: cell-based; details: relative to ibrutinib
Description: Immunoblot assays: Cells were treated with Compound 7 at various concentrations and collected for cell lysates. The total and phosphorylated levels of the indicated proteins were determined by Western Blot.

FLT3(D835V) = target: T1, FLT3(D835V) (Homo sapiens, UniProt P36888, D835V); test: Binding constant (Kd), competition binding with qPCR readout
T1 construct: made in house; host or cells: E. coli BL21-derived host (T7 phage) or HEK-293
Description: (§1) Measurements of said kinase activity are referred to as binding constants or Kd values. The protocol for obtaining these values is hereby described. For most assays, kinase-tagged T7 phage strains were prepared in an E. coli host derived from the BL21 strain. E. coli were grown to log-phase and infected with T7 phage and incubated with shaking at 32° C. until lysis. The lysates were centrifuged and filtered to remove cell debris. The remaining kinases were produced in HEK-293 cells and subsequently tagged with DNA for qPCR detection. […] The liganded beads were blocked with excess biotin and washed with blocking buffer (SeaBlock (Pierce), 1% BSA, 0.05% Tween 20, 1 mM DTT) to remove unbound ligand and to reduce nonspecific binding. […] Test compounds were prepared as 111× stocks in 100% DMSO. Kds were determined using an 11-point 3-fold compound dilution series with three DMSO control points. […] The compounds were then diluted directly into the assays such that the final concentration of DMSO was 0.9%. All reactions performed in polypropylene 384-well plate. Each was a final volume of 0.02 ml. […] The kinase concentration in the eluates was measured by qPCR.

FLT3(ITD-D835V) = target: T2, FLT3(ITD-D835V) (Homo sapiens, UniProt P36888, D835V, form not given); test: as above
T2 construct: kinase-tagged T7 phage strains were prepared in an E. coli host derived from the BL21 strain; fused on or other part: T7 phage fusion or DNA tag for qPCR detection
Description: as §1

FLT3(ITD-F691L) = target: T3, FLT3(ITD-F691L) (Homo sapiens, UniProt P36888, F691L, form not given); test: as above
T3 construct: kinase-tagged T7 phage strains were prepared in an E. coli host derived from the BL21 strain; fused on or other part: T7 phage fusion or DNA tag for qPCR detection
Description: as §1

EGFR = EGFR (Homo sapiens, UniProt P00533); test: Key off-targets (Table 8); format: biochemical
[2] = test system: MV4-11 (FLT3-ITD, t(4:11)); test: Antiproliferative activity (Table 6); format: cell-based; details: Homo sapiens, MV4-11, 72 h
[3] = test system: Aurora kinase in Mino, Ramos and SU-DHL6; test: Aurora kinase inhibition in B-cell lines (Western blot); format: cell-based; details: FIGS. 13A-13C
Description: Inhibition of Aurora kinase activity was measured by western blotting for phosphorylation levels of Aurora kinases or and down-stream targets and by cell cycle and DNA content analysis. Whole cell extracts from Compound 7 treated cells were resolved by gel electrophoresis and transferred to nitrocellulose membranes and inhibition of Aurora kinase A/B and H3S10 phosphorylation was detected with specific antibodies. DNA synthesis and cell cycle phase was assessed by staining compound 7 of vehicle treated cells with 5-ethynyl-2′deoxyuridine (Edu) Alexa Fluor 488 and PI.

Sequence of EGFR (P00533 25-1210): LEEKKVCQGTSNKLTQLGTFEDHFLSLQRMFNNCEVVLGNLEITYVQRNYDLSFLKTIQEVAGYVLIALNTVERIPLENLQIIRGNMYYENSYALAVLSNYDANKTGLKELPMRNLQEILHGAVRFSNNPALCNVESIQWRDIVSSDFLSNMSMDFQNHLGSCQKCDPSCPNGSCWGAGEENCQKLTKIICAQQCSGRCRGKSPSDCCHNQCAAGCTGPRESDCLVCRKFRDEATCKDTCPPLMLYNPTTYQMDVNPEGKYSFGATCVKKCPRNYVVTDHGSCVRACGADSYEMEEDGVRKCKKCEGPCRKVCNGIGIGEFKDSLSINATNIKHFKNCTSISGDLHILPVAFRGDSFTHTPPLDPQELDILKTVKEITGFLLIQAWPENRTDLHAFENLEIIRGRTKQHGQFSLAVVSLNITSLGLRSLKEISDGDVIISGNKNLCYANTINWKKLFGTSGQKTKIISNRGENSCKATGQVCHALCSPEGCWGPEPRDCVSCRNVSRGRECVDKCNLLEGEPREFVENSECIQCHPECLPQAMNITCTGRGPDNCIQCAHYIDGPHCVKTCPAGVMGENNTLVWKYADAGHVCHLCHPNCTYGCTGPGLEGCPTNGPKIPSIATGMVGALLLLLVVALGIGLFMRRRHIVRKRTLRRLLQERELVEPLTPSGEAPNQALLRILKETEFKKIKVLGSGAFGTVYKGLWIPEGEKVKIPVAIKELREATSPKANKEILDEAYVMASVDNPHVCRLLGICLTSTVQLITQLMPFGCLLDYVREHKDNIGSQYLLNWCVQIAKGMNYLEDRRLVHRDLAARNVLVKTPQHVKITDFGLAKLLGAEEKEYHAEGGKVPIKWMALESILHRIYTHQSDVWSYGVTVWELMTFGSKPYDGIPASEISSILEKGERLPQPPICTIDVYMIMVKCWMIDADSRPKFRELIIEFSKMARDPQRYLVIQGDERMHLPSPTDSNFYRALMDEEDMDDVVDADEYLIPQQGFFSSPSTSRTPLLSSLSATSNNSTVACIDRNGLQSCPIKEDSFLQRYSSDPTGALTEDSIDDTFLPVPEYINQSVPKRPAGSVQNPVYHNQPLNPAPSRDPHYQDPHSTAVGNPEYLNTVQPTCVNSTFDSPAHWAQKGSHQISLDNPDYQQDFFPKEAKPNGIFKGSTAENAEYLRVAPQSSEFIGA

Cc1cnc(-c2ccc(-c3ccc(NC(=O)Nc4c(F)cc(F)cc4F)cc3F)c3c2C(=O)NC3)[nH]1 [Compound 7, 1-{3-fluoro-4-[7-(5-methyl-1H-imidazol-2-yl)-1-oxo-2,3-dihydro-1H-isoindol-4-yl]-phenyl}-3-(2,4,6-trifluorophenyl)urea]
BTK and Aurora kinase activity [1]: inhibits BTK and Aurora kinase activity | Kd (FLT3(D835V)): 7.9 nM | Kd (FLT3(ITD-D835V)): 1700 nM | Kd (FLT3(ITD-F691L)): 15 nM | IC50 (EGFR): > 1000 nM | Inhibition of EGFR (in words) (EGFR): no inhibition | IC50 [2]: 0.17 nM | Aurora kinase inhibition (phosphorylation patterns) [3]: effective as an Aurora Kinase inhibitor
